Among the data in paper PMC9123270 (The Journal of Biological Chemistry, 2022) are Kd values, retold here.

Each structure is given as a SMILES string.

What all share (assay): Isothermal titration calorimetry
Common to all, as to type: binding
What all share (details): SD, n = 3
For orientation: Isothermal titration calorimetry measures the heat released or taken up as one component is titrated into another.

One assay has as its target T1, AngaD7L2 (Anopheles gambiae, UniProt A0A1S4GYJ6).
T1 sequence (A0A1S4GYJ6 19-315): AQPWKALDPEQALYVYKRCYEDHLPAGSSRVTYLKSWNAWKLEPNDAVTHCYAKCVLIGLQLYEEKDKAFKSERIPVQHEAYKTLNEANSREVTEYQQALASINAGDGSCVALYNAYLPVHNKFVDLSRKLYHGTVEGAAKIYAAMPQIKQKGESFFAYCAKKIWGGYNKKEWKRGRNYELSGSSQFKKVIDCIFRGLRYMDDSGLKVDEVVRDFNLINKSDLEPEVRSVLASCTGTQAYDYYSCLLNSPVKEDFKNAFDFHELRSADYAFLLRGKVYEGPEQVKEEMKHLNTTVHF

The next assay concerns the target T2, AngaD7L1 (Anopheles gambiae, UniProt Q7PJ76).
T2 sequence (Q7PJ76 22-311): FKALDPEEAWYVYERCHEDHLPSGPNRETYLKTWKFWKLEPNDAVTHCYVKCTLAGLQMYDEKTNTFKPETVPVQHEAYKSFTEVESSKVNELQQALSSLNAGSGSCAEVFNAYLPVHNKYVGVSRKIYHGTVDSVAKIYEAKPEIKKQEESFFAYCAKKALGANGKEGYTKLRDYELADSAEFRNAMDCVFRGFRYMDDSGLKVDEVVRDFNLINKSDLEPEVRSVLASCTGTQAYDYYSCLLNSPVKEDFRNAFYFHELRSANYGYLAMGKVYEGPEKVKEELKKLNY

A further assay addresses AngaD7L3 (Anopheles gambiae, UniProt A0A1S4HE90).

Chain of AngaD7L3 (A0A1S4HE90 27-354): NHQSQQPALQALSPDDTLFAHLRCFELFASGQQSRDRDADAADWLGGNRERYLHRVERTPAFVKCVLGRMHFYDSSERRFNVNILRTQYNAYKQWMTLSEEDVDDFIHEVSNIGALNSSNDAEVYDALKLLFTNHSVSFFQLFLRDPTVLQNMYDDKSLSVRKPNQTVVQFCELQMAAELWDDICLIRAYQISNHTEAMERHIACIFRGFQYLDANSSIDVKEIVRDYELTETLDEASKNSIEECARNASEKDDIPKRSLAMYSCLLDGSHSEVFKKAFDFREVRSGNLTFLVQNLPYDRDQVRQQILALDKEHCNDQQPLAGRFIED

A word on the Kd: it is a measure of binding affinity in units of concentration. A lower Kd goes with a tighter complex. The compound `CCCCC/C=C\C[C@@H](O)/C=C/C=C/C=C\[C@@H](O)CCCC(=O)O` [LTB4, leukotriene B4] returned a dissociation constant (Kd) at AngaD7L2 of 800 nM.

The compound `CCCCC/C=C\C\C=C/C=C/C=C/[C@@H](SC[C@H](NC(=O)CC[C@H](N)C(=O)O)C(=O)NCC(=O)O)[C@@H](O)CCCC(=O)O` [LTC4, leukotriene C4] registered a Kd on AngaD7L1 of 2000 nM.

Take `CCCCC/C=C\C\C=C/C=C/C=C/[C@@H](SC[C@H](N)C(=O)NCC(=O)O)[C@@H](O)CCCC(=O)O` [LTD4, leukotriene D4]: the equilibrium dissociation constant (Kd) at AngaD7L2 came to 1000 nM.

On AngaD7L3, `NCCc1c[nH]c2ccc(O)cc12` [Serotonin, 5-hydroxytryptamine (5-HT)] showed a Kd of 20 nM.

`CCCCC[C@H](O)/C=C/[C@@H]1[C@@H](C/C=C\CCCC(=O)O)[C@H]2CO[C@@H]1C2` [U-46619, 9,11-dideoxy-9alpha,11alpha-methanoepoxyprostaglandin F2alpha (thromboxane A2 analog)] returned a Kd at AngaD7L1 of 400 nM.
